The source made the active and inactive calls. No cut-off for these calls is given here.
How the values were obtained:
Mus musculus [1] = experiment: Anticonvulsant activity in albino CD1 mouse assessed as protection against subcutaneous pentylenetetrazole-induced seizures at 300 mg/kg, ip measured after 4 hrs; format: functional, organism-based
Mus musculus [2] = experiment: Anticonvulsant activity in albino CD1 mouse assessed as protection against maximal electroshock-induced seizures at 300 mg/kg, ip measured after 4 hrs; format: functional, organism-based
Mus musculus [3] = experiment: Neurotoxicity in albino CD1 mouse assessed as motor impairment at 300 mg/kg, ip measured after 0.5 hrs by rotarod test; format: toxicity, organism-based; conditions: in vivo
Mus musculus [4] = experiment: Anticonvulsant activity in albino CD1 mouse assessed as protection against subcutaneous pentylenetetrazole-induced seizures at 300 mg/kg, ip measured after 0.5 hrs; format: functional, organism-based
Mus musculus [5] = experiment: Anticonvulsant activity in albino CD1 mouse assessed as protection against maximal electroshock-induced seizures at 300 mg/kg, ip measured after 0.5 hrs; format: functional, organism-based
Mus musculus [6] = experiment: Neurotoxicity in albino CD1 mouse assessed as motor impairment at 300 mg/kg, ip measured after 4 hrs by rotarod test; format: toxicity, organism-based; conditions: in vivo
Mus musculus [7] = experiment: Protection index, ratio of TD50 for motor impairment in ip dosed albino CD1 mouse to ED50 for protection against subcutaneous pentylenetetrazole-induced seizures in ip dosed albino CD1 mouse
Mus musculus [8] = experiment: Anticonvulsant activity in ip dosed albino CD1 mouse assessed as protection against subcutaneous pentylenetetrazole-induced seizures; format: functional
[9] = Neurotoxicity in ip dosed albino CD1 mouse assessed as motor impairment by rotarod test; format: toxicity, organism-based; conditions: in vivo
Mus musculus [10] = experiment: Anticonvulsant activity in ip dosed albino CD1 mouse assessed as minimum dose required to protect subcutaneous pentylenetetrazole-induced seizures in half and more mouse measured after 4 hrs; format: functional
Mus musculus [11] = experiment: Anticonvulsant in ip dosed CD1 mouse assessed as time to peak effect; format: functional
Mus musculus [12] = experiment: Anticonvulsant activity in ip dosed albino CD1 mouse assessed as protection against 32 mA current-induced seizure by 6 Hz psychomotor test; format: functional
Mus musculus [13] = experiment: Anticonvulsant activity in albino CD1 mouse assessed as protection against 32 mA current-induced seizure at 100 mg/kg, ip after 0.5 hrs by 6 Hz psychomotor test; format: functional
Mus musculus [14] = experiment: Anticonvulsant activity in albino CD1 mouse assessed as protection against 32 mA current-induced seizure at 100 mg/kg, ip after 4 hrs by 6 Hz psychomotor test; format: functional, organism-based
Mus musculus [15] = experiment: Anticonvulsant activity in ip dosed albino CD1 mouse assessed as minimum dose required to protect subcutaneous pentylenetetrazole-induced seizures in half and more mouse measured after 0.5 hrs; format: functional
Mus musculus [16] = experiment: Anticonvulsant activity in ip dosed albino CD1 mouse assessed as minimum dose required to protect maximal electroshock-induced seizures in half and more mouse measured after 4 hrs; format: functional

Structure (SMILES)	Activity (Mus musculus [1])	Activity (Mus musculus [2])	Activity (Mus musculus [3])	Activity (Mus musculus [4])	Activity (Mus musculus [5])	Activity (Mus musculus [6])	Ratio TD50/ED50 (Mus musculus [7])	ED50 (Mus musculus [8]) [mg/kg]	TD50 [9] [mg/kg]	Activity (Mus musculus [10]) [mg/kg]	Time (Mus musculus [11]) [h]	ED50 (Mus musculus [12]) [mg/kg]	Activity (Mus musculus [13])	Activity (Mus musculus [14])	Activity (Mus musculus [15]) [mg/kg]	Activity (Mus musculus [16]) [mg/kg]
CC(C)C1CC(=O)N(CN2CCC(Cc3ccccc3)CC2)C1=O (centres undefined)	inactive	inactive	Non-Toxic	inactive	inactive	Non-Toxic										
O=C1CCC(=O)N1CN1CCN(CCO)CC1	inactive	inactive	Non-Toxic	inactive	inactive	Non-Toxic										
CC(C)C1CC(=O)N(CN2CCN(C3CCCCC3)CC2)C1=O (centres undefined)		inactive	Non-Toxic	inactive	inactive	Non-Toxic	<2.17	91.8	< 200	100	0.5					
COC[C@@H](NC(C)=O)C(=O)NCc1ccccc1 [LACOSAMIDE]											0.5	5.2				
CC1CC(=O)N(CN2CCC(Cc3ccccc3)CC2)C1=O (centres undefined)	inactive	inactive	Non-Toxic	inactive	inactive	Non-Toxic										
CC(C)C1CC(=O)N(CN2CCN(C)CC2)C1=O (centres undefined)		inactive	Non-Toxic		inactive	Non-Toxic	>4	74.9	> 300	300	0.5		inactive	inactive	100	
CC1CC(=O)N(CN2CCN(CCO)CC2)C1=O (centres undefined)	inactive	inactive	Non-Toxic	inactive	inactive	Non-Toxic										
O=C1CCC(=O)N1CN1CCN(c2ncccn2)CC1	inactive	inactive	Non-Toxic	inactive	inactive	Non-Toxic										
CCC1(C)CC(=O)NC1=O (centres undefined) [ETHOSUXIMIDE]											0.25					
CN1CCN(CN2C(=O)CCC2=O)CC1	inactive	inactive	Non-Toxic	inactive	inactive	Non-Toxic										
CC(C)C1CC(=O)N(CN2CCN(CCO)CC2)C1=O (centres undefined)			Non-Toxic	inactive	inactive	Non-Toxic				300						300
CC[C@@H](C(N)=O)N1CCCC1=O									> 500		1					
O=C1CCC(=O)N1CN1CCN(C2CCCCC2)CC1	inactive	inactive	Non-Toxic	inactive	inactive	Non-Toxic										
CC1CC(=O)N(CN2CCN(C3CCCCC3)CC2)C1=O (centres undefined)	inactive	inactive	Non-Toxic	inactive	inactive	Non-Toxic										
CCCC(CCC)C(=O)O [VALPROIC ACID]								240			0.5	131				

Reference: ChEMBL document CHEMBL3997820, “Synthesis and evaluation of anticonvulsant properties of new N-Mannich bases derived from pyrrolidine-2,5-dione and its 3-methyl-, 3-isopropyl, and 3-benzhydryl analogs” (Bioorg Med Chem Lett, 2017)
